Assay results: patent US11981660B2, “Neurite outgrowth promoters and uses thereof” (UNIVERSITY OF MIAMI, priority 2018, dated 2024)

Test system: hippocampal neurons
Assay: Neurite outgrowth assay in cultured E18 rat hippocampal neurons (48 h, βIII-tubulin staining, Cellomics ArrayScan)
Format: cell-based
Settings: Hippocampal neuron; for activity at 0.015625 µg/mL: 15.625 ng/mL compound; for activity at 0.015625 µg/mL / activity at 0.03125 µg/mL / activity at 0.0625 µg/mL / activity at 0.125 µg/mL / activity at 0.25 µg/mL / activity at 0.5 µg/mL: 48 hours, read-out: neurite growth length (% NTL); for activity at 0.03125 µg/mL: 31.25 ng/mL compound; for activity at 0.0625 µg/mL: 62.5 ng/mL compound; for activity at 0.125 µg/mL: 125 ng/mL compound; for activity at 0.25 µg/mL: 250 ng/mL compound; for activity at 0.5 µg/mL: 500 ng/mL compound; for EC200 / EC300: 48 h, estimated using linear interpolation; for EC200: 200% effective dose, read-out: ED200%; for EC300: 300% effective dose, read-out: ED300%
Procedure: Pre-coating culture plates: On the day before the experiment, 96-well plates were pre-coated by plating 50 μL of poly-D-lysine solution (PDL, 0.5 mg/mL) in each well. The next morning, the plates were washed four or five times with HBSS or PBS (150 μL/rinse), then left in buffer until cell plating
Preparing the cells: A timed pregnant rat carrying E18 embryos was euthanized using an IACUC approved method. In a laminar flow hood, the embryos were removed and placed in a petri dish containing Hank's Balanced Salt Solution (HBSS) with 20 mM HEPES, pH 7.3. Pup brains were dissected (see Meberg et al., Methods cell Biol 71:111-127 (2003)) and hippocampi were collected in 15 mL a conical tube containing Hibernate E with SM1 (2% v/v).
Dissociation media was prepared by combining 4.5 mL of Hibernate E (without SM1) with 0.5 mL of trypsin and 100 μl of DNAse solution. The medium over the hippocampi was carefully removed and replaced with dissociation solution, then incubated at 37° C. for 15-20 minutes, occasionally swirling the tube.
Using flame polished cotton plugged Pasteur pipettes, the dissociation media was removed, and then 5 mL of Hibernate E containing SM1 were added. The tube was swirled to thoroughly wash the tissue. The tissue was allowed to settle to the bottom of the tube, and the rinse solution was carefully removed. This step was repeated 5 times to dilute out trypsin and DNAse and remove any debris from lysed cells.
The final rinse media was removed from the tube and 1 pipette-full (1-2 mL) of Hibernate E with SM1 was added. Using the flame-polished Pasteur pipette (pre-wetted with rinse media), the tube was triturated until all cells had dissociated and no visible chunks of tissue remained. Fewer than ten triturations were typically performed. The volume was adjusted to 8-12 mL using Hibernate E containing SM1, the well was mixed and cell concentration was determined.
Plating: The cells were diluted in culture media (NbActiv4 Cell-culture media) to a final concentration of 10,000 cells/mL. The HBSS was aspirated from PDL coated plates, and 150 μL of cell solution was loaded in the middle 48 wells at 1500 cells per well. Water was loaded in the outer wells to decrease evaporation from edge wells. Cells were allowed to adhere for 2 hours in tissue culture incubator prior to treatment.
Treatment: Compounds were diluted to various concentrations to provide 6 dose response concentrations of 500 ng/mL, 250 ng/mL, 125 ng/mL, 62.5 ng/mL, 31.25 ng/mL, and 15.625 ng/mL. The plates were cultured for 48 hours, exposed to the compound at the various dose response concentrations.
Fixing the cultures: The culture medium was removed from the plates and immediately replaced with 100-200 μL of warm (37° C.) 4% paraformaldehyde (“PFA”) solution in phosphate-buffered saline (“PBS”). The cells were fixed for 15-20 minutes at room temperature, and then rinsed with PBS (200 μl/well×3).
Staining and imaging: The PBS was removed and replaced with 100 μL of blocking/permeabilization buffer (PBS, 0.2% fish gelatin, 0.03% Triton X-100, 0.02% NaN3), then incubated overnight at 4° C. To this was added 100 μL of primary antibody solution (mouse anti-Beta III tubulin in blocking buffer) and incubate overnight at 4° C. The wells were rinsed with PBS (200 μl×3), which was then removed and replaced with 100 μL of secondary antibody solution (Goat anti-mouse Alexa 488, 10 μg/ml Hoechst 33342, 0.2% fish gelatin, 0.02% azide, in PBS). The plate was shaken gently on a rotating shaker for 2 hours, then rinsed with PBS (200 μl×5).
The plate was imaged using a Cellomics ArrayScan VTI in 2 different channels for nuclear staining (Hoechst) and cell body/neurite staining (βIII-tubulin). Typically, nine fields per well were imaged with a 5× objective and automatically traced by the Neuronal Profiling Bioapplication. To get reproducible results, at least 200-300 valid neurons were measured per condition. […]

Structure (SMILES): CCC(C)C1=N[C@@H](CCCCN2C[C@@H](C)N(CCCC(C)C)C2=S)CN1 (mixture of isomers) [Compound A1, (4R)-1-(4-((4S)-2-(sec-butyl)-4,5-dihydro-1H-imidazol-4-yl)butyl)-4-methyl-3-(4-methylpentyl)imidazolidine-2-thione]
- activity at 0.015625 µg/mL: 92%
- activity at 0.03125 µg/mL: 116%
- activity at 0.0625 µg/mL: 155%
- activity at 0.125 µg/mL: 169%
- activity at 0.25 µg/mL: 209%
- activity at 0.5 µg/mL: 323%

Structure (SMILES): CCC(C)C1=N[C@@H](CCCCN2C[C@@H](CC(C)C)N(CCCC(C)C)C2=S)CN1 (mixture of isomers) [Compound A10, (4R)-1-(4-((4S)-2-(sec-butyl)-4,5-dihydro-1H-imidazol-4-yl)butyl)-4-isobutyl-3-(4-methylpentyl)imidazolidine-2-thione]
- activity at 0.015625 µg/mL: 123%
- activity at 0.03125 µg/mL: 180%
- activity at 0.0625 µg/mL: 223%
- activity at 0.125 µg/mL: 254%
- activity at 0.25 µg/mL: 259%
- activity at 0.5 µg/mL: 240%

Structure (SMILES): CC(C)CCCN1C(=S)N(CCCC[C@H]2CNC(C3CCCC3)=N2)C[C@H]1C [Compound A2, (R)-1-(4-((S)-2-cyclopentyl-4,5-dihydro-1H-imidazol-4-yl)butyl)-4-methyl-3-(4-methylpentyl)imidazolidine-2-thione]
- activity at 0.015625 µg/mL: 114%
- activity at 0.03125 µg/mL: 138%
- activity at 0.0625 µg/mL: 176%
- activity at 0.125 µg/mL: 214%
- activity at 0.25 µg/mL: 265%
- activity at 0.5 µg/mL: 324%

Structure (SMILES): CC(C)CCCN1C(=S)N(CCCC[C@H]2CNC(CCCc3ccccc3)=N2)C[C@H]1C [Compound A3, (R)-4-methyl-3-(4-methylpentyl)-1-(4-((S)-2-(3-phenylpropyl)-4,5-dihydro-1H-imidazol-4-yl)butyl)imidazolidine-2-thione]
- activity at 0.015625 µg/mL: 116%
- activity at 0.03125 µg/mL: 100%
- activity at 0.0625 µg/mL: 124%
- activity at 0.125 µg/mL: 160%
- activity at 0.25 µg/mL: 257%
- activity at 0.5 µg/mL: 347%

Structure (SMILES): CCC(C)C1=N[C@@H](CCCCN2C[C@@H](C)N(CCC3CCCCC3)C2=S)CN1 (stereo partly drawn) [Compound A4, (4R)-1-(4-((4S)-2-(sec-butyl)-4,5-dihydro-1H-imidazol-4-yl)butyl)-3-(2-cyclohexylethyl)-4-methylimidazolidine-2-thione]
- activity at 0.015625 µg/mL: 102%
- activity at 0.03125 µg/mL: 121%
- activity at 0.0625 µg/mL: 143%
- activity at 0.125 µg/mL: 196%
- activity at 0.25 µg/mL: 246%
- activity at 0.5 µg/mL: 358%

Structure (SMILES): C[C@@H]1CN(CCCC[C@H]2CNC(C3CCCC3)=N2)C(=S)N1CCC1CCCCC1 [Compound A5, (R)-3-(2-cyclohexylethyl)-1-(4-((S)-2-cyclopentyl-4,5-dihydro-1H-imidazol-4-yl)butyl)-4-methylimidazolidine-2-thione]
- activity at 0.015625 µg/mL: 105%
- activity at 0.03125 µg/mL: 158%
- activity at 0.0625 µg/mL: 188%
- activity at 0.125 µg/mL: 251%
- activity at 0.25 µg/mL: 246%
- activity at 0.5 µg/mL: 304%

Structure (SMILES): C[C@@H]1CN(CCCC[C@H]2CNC(CCCc3ccccc3)=N2)C(=S)N1CCC1CCCCC1 [Compound A6, (R)-3-(2-cyclohexylethyl)-4-methyl-1-(4-((S)-2-(3-phenylpropyl)-4,5-dihydro-1H-imidazol-4-yl)butyl)imidazolidine-2-thione]
- activity at 0.015625 µg/mL: 101%
- activity at 0.03125 µg/mL: 122%
- activity at 0.0625 µg/mL: 122%
- activity at 0.125 µg/mL: 210%
- activity at 0.25 µg/mL: 247%
- activity at 0.5 µg/mL: 243%

Structure (SMILES): CCC(C)C1=N[C@@H](CCCCN2C[C@@H](C)N(CC3CCC(C)CC3)C2=S)CN1 (stereo partly drawn) [Compound A7, (4R)-1-(4-((4S)-2-(sec-butyl)-4,5-dihydro-1H-imidazol-4-yl)butyl)-4-methyl-3-((4-methylcyclohexyl)methyl)imidazolidine-2-thione]
- activity at 0.015625 µg/mL: 97%
- activity at 0.03125 µg/mL: 135%
- activity at 0.0625 µg/mL: 150%
- activity at 0.125 µg/mL: 166%
- activity at 0.25 µg/mL: 267%
- activity at 0.5 µg/mL: 294%

Structure (SMILES): CC1CCC(CN2C(=S)N(CCCC[C@H]3CNC(C4CCCC4)=N3)C[C@H]2C)CC1 (stereo partly drawn) [Compound A8, (R)-1-(4-((S)-2-cyclopentyl-4,5-dihydro-1H-imidazol-4-yl)butyl)-4-methyl-3-((4-methylcyclohexyl)methyl)imidazolidine-2-thione]
- activity at 0.015625 µg/mL: 95%
- activity at 0.03125 µg/mL: 128%
- activity at 0.0625 µg/mL: 168%
- activity at 0.125 µg/mL: 231%
- activity at 0.25 µg/mL: 257%
- activity at 0.5 µg/mL: 322%
- EC200: 0.13 µM
- EC300: 0.282 µM

Structure (SMILES): CC1CCC(CN2C(=S)N(CCCC[C@H]3CNC(CCCc4ccccc4)=N3)C[C@H]2C)CC1 (stereo partly drawn) [Compound A9, (R)-4-methyl-3-((4-methylcyclohexyl)methyl)-1-(4-((S)-2-(3-phenylpropyl)-4,5-dihydro-1H-imidazol-4-yl)butyl)imidazolidine-2-thione]
- activity at 0.015625 µg/mL: 88%
- activity at 0.03125 µg/mL: 102%
- activity at 0.0625 µg/mL: 118%
- activity at 0.125 µg/mL: 70%
- activity at 0.25 µg/mL: 238%
- activity at 0.5 µg/mL: 297%

Structure (SMILES): CC(C)CCCN1C(=S)N(CCCC[C@H]2CNC(C3CCCC3)=N2)C[C@H]1CC(C)C [Compound A11, (R)-1-(4-((S)-2-cyclopentyl-4,5-dihydro-1H-imidazol-4-yl)butyl)-4-isobutyl-3-(4-methylpentyl)imidazolidine-2-thione]
- activity at 0.015625 µg/mL: 135%
- activity at 0.03125 µg/mL: 215%
- activity at 0.0625 µg/mL: 266%
- activity at 0.125 µg/mL: 273%
- activity at 0.25 µg/mL: 264%
- activity at 0.5 µg/mL: 256%

Structure (SMILES): CC(C)CCCN1C(=S)N(CCCC[C@H]2CNC(CCCc3ccccc3)=N2)C[C@H]1CC(C)C [Compound A12, (R)-4-isobutyl-3-(4-methylpentyl)-1-(4-((S)-2-(3-phenylpropyl)-4,5-dihydro-1H-imidazol-4-yl)butyl)imidazolidine-2-thione]
- activity at 0.015625 µg/mL: 127%
- activity at 0.03125 µg/mL: 145%
- activity at 0.0625 µg/mL: 194%
- activity at 0.125 µg/mL: 237%
- activity at 0.25 µg/mL: 266%
- activity at 0.5 µg/mL: 240%

Structure (SMILES): CCC(C)C1=N[C@@H](CCCCN2C[C@@H](CC(C)C)N(CCC3CCCCC3)C2=S)CN1 (stereo partly drawn) [Compound A13, (4R)-1-(4-((4S)-2-(sec-butyl)-4,5-dihydro-1H-imidazol-4-yl)butyl)-3-(2-cyclohexylethyl)-4-isobutylimidazolidine-2-thione]
- activity at 0.015625 µg/mL: 159%
- activity at 0.03125 µg/mL: 179%
- activity at 0.0625 µg/mL: 262%
- activity at 0.125 µg/mL: 253%
- activity at 0.25 µg/mL: 253%
- activity at 0.5 µg/mL: 264%

Structure (SMILES): CC(C)C[C@@H]1CN(CCCC[C@H]2CNC(C3CCCC3)=N2)C(=S)N1CCC1CCCCC1 [Compound A14, (R)-3-(2-cyclohexylethyl)-1-(4-((S)-2-cyclopentyl-4,5-dihydro-1H-imidazol-4-yl)butyl)-4-isobutylimidazolidine-2-thione]
- activity at 0.015625 µg/mL: 195%
- activity at 0.03125 µg/mL: 256%
- activity at 0.0625 µg/mL: 271%
- activity at 0.125 µg/mL: 283%
- activity at 0.25 µg/mL: 277%
- activity at 0.5 µg/mL: 249%
- EC200: 0.004 µM
- EC300: > 0.543 µM
